Measured values from ChEMBL document CHEMBL4350967, “The Trifluoromethyl Group as a Bioisosteric Replacement of the Aliphatic Nitro Group in CB1 Receptor Positive Allosteric Modulators” (J Med Chem, 2019).

Assays:
Type in all cases: cell-based
[1] = biological target: T1, Cannabinoid receptor 1 (Homo sapiens, UniProt P21554); test: Positive allosteric modulation of human CB1 receptor expressed in CHOK1 cells assessed as increase in CP55940-induced beta-arrestin recruitment at 500 nM preincubated for 30 mins followed by CP55940 addition and measured after 90 to 180 mins by PathHunter assay relative to CP55940
[2] = biological target: T1, Cannabinoid receptor 1; test: Positive allosteric modulation of human CB1 receptor expressed in CHOK1 cells assessed as increase in CP55940-induced beta-arrestin recruitment at 1000 nM preincubated for 30 mins followed by CP55940 addition and measured after 90 to 180 mins by PathHunter assay relative to CP55940
[3] = biological target: T1, Cannabinoid receptor 1; test: Positive allosteric modulation of human CB1 receptor expressed in CHOK1 cells assessed as increase in CP55940-induced beta-arrestin recruitment at 1 uM preincubated for 30 mins followed by CP55940 addition and measured after 90 to 180 mins by PathHunter assay relative to CP55940
[4] = biological target: T1, Cannabinoid receptor 1; test: Positive allosteric modulation of human CB1 receptor expressed in CHOK1 cells assessed as increase in CP55940-induced beta-arrestin recruitment at 200 nM preincubated for 30 mins followed by CP55940 addition and measured after 90 to 180 mins by PathHunter assay relative to CP55940
[5] = biological target: T1, Cannabinoid receptor 1; test: Positive allosteric modulation of human CB1 receptor expressed in CHOK1 cells assessed as increase in CP55940-induced beta-arrestin recruitment preincubated for 30 mins followed by CP55940 addition and measured after 90 to 180 mins by PathHunter assay relative to CP55940

T1 sequence (P21554 whole entry): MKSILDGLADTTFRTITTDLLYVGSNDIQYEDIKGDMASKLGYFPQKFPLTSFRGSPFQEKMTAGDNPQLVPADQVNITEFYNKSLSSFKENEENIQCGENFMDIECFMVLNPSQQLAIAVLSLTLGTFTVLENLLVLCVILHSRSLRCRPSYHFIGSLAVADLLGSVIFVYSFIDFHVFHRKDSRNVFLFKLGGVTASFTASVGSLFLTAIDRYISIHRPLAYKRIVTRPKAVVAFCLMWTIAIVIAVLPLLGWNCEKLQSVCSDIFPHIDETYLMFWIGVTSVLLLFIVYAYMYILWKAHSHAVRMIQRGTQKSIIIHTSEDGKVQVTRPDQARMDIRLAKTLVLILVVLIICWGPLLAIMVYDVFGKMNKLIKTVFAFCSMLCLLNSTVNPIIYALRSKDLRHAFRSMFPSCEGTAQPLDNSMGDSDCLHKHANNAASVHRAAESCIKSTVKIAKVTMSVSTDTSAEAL

| Activity [3] | Compound | other results |
| --- | --- | --- |
|  | Cc1ccc2c(C(CC(F)(F)F)c3cccs3)c(-c3ccccc3)[nH]c2c1 (racemic) | Activity [1]: > 50% |
|  | Cc1ccc2c(C(CC3CC3)CC(F)(F)F)c(-c3ccccc3)[nH]c2c1 (racemic) | Activity [2]: > 50% |
| < 50% | Cc1ccc2c(C(C[N+](=O)[O-])c3cccs3)c(-c3ccc(F)cc3)[nH]c2c1 (racemic) |  |
|  | Cc1ccc2c(C(C[N+](=O)[O-])c3cccs3)c(C3CC3)[nH]c2c1 (racemic) | Activity [2]: > 50% |
|  | Cc1ccc2c(C(C[N+](=O)[O-])c3cccs3)c(C3CCCC3)[nH]c2c1 (racemic) | Activity [2]: > 50% |
| < 50% | Cc1ccc2c(C(C[N+](=O)[O-])c3cccs3)c(C3CCCCC3)[nH]c2c1 (racemic) |  |
|  | Cc1ccc2c(C(c3ccccc3)C(C#N)C#N)c(-c3ccccc3)[nH]c2c1 (racemic) | Activity [2]: > 50% |
|  | FC(F)(F)CC(c1ccccc1)c1c(-c2ccccc2)[nH]c2cc(C(F)(F)F)ccc12 (racemic) | Activity [4]: > 50% |
| 30 to 50% | FC(F)(F)CC(c1ccccc1)c1c(-c2ccccc2)[nH]c2ccccc12 (racemic) | Activity [2]: > 50% |
|  | FC(F)(F)CC(c1ccco1)c1c(-c2ccccc2)[nH]c2cc(Cl)ccc12 (racemic) | Activity [1]: > 50% |
|  | FC(F)(F)CC(c1cccs1)c1c(-c2ccccc2)[nH]c2cc(Cl)ccc12 (racemic) | Activity [4]: > 50% |
| < 50% | N#CC(C#N)C(c1ccccc1)c1c(-c2ccccc2)[nH]c2ccccc12 (racemic) |  |
| < 50% | N#CCC(c1ccccc1)c1c(-c2ccccc2)[nH]c2ccccc12 (racemic) |  |
| < 50% | N#Cc1ccc(-c2[nH]c3cc(Cl)ccc3c2C(C[N+](=O)[O-])c2cccs2)cc1 (racemic) |  |
|  | N#Cc1ccc2c(C(C[N+](=O)[O-])c3cccs3)c(-c3ccccc3)[nH]c2c1 (racemic) | Activity [2]: > 50% |
| < 50% | N#Cc1cccc(-c2[nH]c3cc(Cl)ccc3c2C(C[N+](=O)[O-])c2cccs2)c1 (racemic) |  |
| < 50% | Nc1ccc2c(C(CC(F)(F)F)c3cccs3)c(-c3ccccc3)[nH]c2c1 (racemic) |  |
| 30 to 50% | O=C(C(c1ccccc1)c1c(-c2ccccc2)[nH]c2ccccc12)C(F)(F)F (racemic) |  |
| < 50% | O=C(O)CC(c1ccccc1)c1c(-c2ccccc2)[nH]c2ccccc12 (racemic) |  |
| < 50% | O=C(O)c1ccc(-c2[nH]c3cc(Cl)ccc3c2C(C[N+](=O)[O-])c2cccs2)cc1 (racemic) |  |
| < 50% | O=C(O)c1ccc2c(C(CC(F)(F)F)c3cccs3)c(-c3ccccc3)[nH]c2c1 (racemic) |  |
| < 50% | O=[N+]([O-])CC(c1cccs1)c1c(-c2ccc(Cl)cc2)[nH]c2cc(Cl)ccc12 (racemic) |  |
| < 50% | O=[N+]([O-])CC(c1cccs1)c1c(-c2ccc(F)cc2)[nH]c2cc(Cl)ccc12 (racemic) |  |
| < 50% | O=[N+]([O-])CC(c1cccs1)c1c(-c2ccccc2)[nH]c2ccc([N+](=O)[O-])cc12 (racemic) |  |
| < 50% | OCC(c1ccccc1)c1c(-c2ccccc2)[nH]c2ccccc12 (racemic) |  |
| < 50% | OCc1ccc2c(C(CC(F)(F)F)c3cccs3)c(-c3ccccc3)[nH]c2c1 (racemic) |  |
|  | COC(=O)c1ccc2c(C(CC(F)(F)F)c3cccs3)c(-c3ccccc3)[nH]c2c1 (single isomer, unassigned; (+)) | Emax [5]: 156%; Activity [4]: > 50% |
| < 50% | O=C(O)CC(c1ccccc1)c1c(-c2ccccc2)[nH]c2ccccc12 (single isomer, unassigned; (+)) |  |
|  | COC(=O)c1ccc2c(C(CC(F)(F)F)c3cccs3)c(-c3ccccc3)[nH]c2c1 (single isomer, unassigned; (-)) | Activity [4]: > 50% |
| < 50% | O=C(O)CC(c1ccccc1)c1c(-c2ccccc2)[nH]c2ccccc12 (stereo in doubt; (-)-26) |  |
